From patent publication US11931335B2, “Enhancing autophagy or increasing longevity by administration of urolithins or precursors thereof” (Amazentis SA, priority 2012, dated 2024)
Entries after “also recorded” stand apart in the source; their conditions may differ. Where two headings read alike, the source gives them in different places.

Legend:
[1] = system: C. elegans wild-type Bristol N2; conditions: Genotype: N2, fed live E. coli (OP50), cited from earlier work
[2] = system: C. elegans wild-type Bristol N2; experiment: Lifespan of wild-type C. elegans; format: in vivo; conditions: concentration of 50 µM; exposed from eggs; FIG. 4
Protocol: C. elegans strains were cultured at 20° C. on nematode growth media (NGM) agar plates seeded with E. coli strain OP50. Strain used was wild-type Bristol N2 provided by the Caenorhabditis Genetics Center (University of Minnesota). All Compounds were dissolved in DMSO. Animals were exposed to compounds from eggs on plates seeded with live OP50 bacteria. Control plates were prepared with the corresponding concentrations of DMSO (0.1%). For lifespan tests, worms were observed using a Nikon SMZ1500 stereomicroscope (Nikon, Melville, NY, USA). […] After 3 days (corresponding to day 0), newly developed 60 to 100 L4 worms were used per condition, scored and transferred to fresh plates every 3 days starting from day 1 (young adult worms). All lifespan experiments were performed at 20° C.
Lifespan assays were performed with (A) wild-type (N2), (B) sir-2.1(ok434) mutant, (C) aak-2(ok524), (D) daf-16(mu86), (E) eat-2(ad465) and (F) daf-2(e1370) mutant strains of C. elegans maintained during their full life on plates supplemented with either 50 μM of urolithin A or with a control treatment and seeded with OP50 bacteria. Control plates without urolithin A contained an equivalent concentration of DMSO. Worm lifespan assays were performed at 20° C.

[3] = system: C. elegans wild type (N2, Bristol); experiment: Mobility tracking of C. elegans during aging; format: in vivo; conditions: days 1, 3, 5 and 8 of adulthood; 50 μM; FIG. 12
Protocol: To examine the effect of urolithins on muscle activity during aging, C. elegans mobility was examined over time. Synchronized populations of wild-type nematodes were prepared by standard methods and cultivated at 20° C. on NGM agar containing E. Coli (OP50) with or without test compounds (ellagic acid (EA), urolithins A (UA), and B (UB)). At Day 0, five plates were prepared, each containing 10 young adult worms. Worms were assayed for mobility at different ages, day 1, 3, 5 and 8 of adulthood. The wild type (N2, Bristol) worm strain was employed for these studies.
For C. elegans movement tracking, 45 seconds of video were recorded using a Nikon DS-L2/DS-Fi1 camera and controller setup, attached to both a computer and a standard bright field microscope, tracking an entire plate of 10 worms, with 5 plates per condition. The movement of worms during this time was calculated using an adapted version of the freely-available software Parallel Worm Tracker for MATLAB. The total movement over the 45 second tracking was averaged across all worms for each condition. This experiment was repeated twice with between 40 and 70 worms per condition.

[4] = system: C. elegans; experiment: Pharyngeal pumping in C. elegans; format: in vivo; conditions: day 14 (aged worms); 50 μM; FIG. 11
Protocol: To examine the effect of urolithins on muscle function, pharyngeal pumping was examined in C. elegans worms at day 7 and day 14. Worms were observed using a Nikon SMZ1500 stereomicroscope (Nikon, Melville, NY, USA). Ten L4 worms were transferred on plates containing NGM medium with vehicle (DMSO 0.1%, final concentration) or the compound of interest (urolithin A (UA), urolithin B (UB), urolithin C (UC), urolithin D (UD)) dissolved in DMSO (final concentration 50 μM) and seeded with E. coli RNAi clones as indicated. After 3 days (corresponding to day 0), newly developed 60 to 100 L4 worms were used per condition, scored and transferred to fresh plates every 3 days starting from day 1 (young adult worms). Experiments were performed at 20° C.
The pharyngeal pumping rates at day 7 and 14 were measured for 10 worms by transferring single worms to an unseeded plate and scoring for pharyngeal pumping under a dissecting microscope for 30 seconds. The pharyngeal pumping rates were then computed by extrapolating the pumping made by worms during this 30 second period.

[5] = system: C. elegans; experiment: Time-lapse motility of C. elegans; format: in vivo; conditions: 50 μM; days 8, 14 and 16; FIG. 13
Excerpt: Briefly, worms were observed using a Nikon SMZ1500 stereomicroscope (Nikon, Melville, NY, USA). […] Experiments were repeated three times.

[6] = system: undifferentiated C2C12 mouse myoblasts; experiment: LC3B flow cytometry in C2C12 myoblasts; format: cell-based; conditions: 100 μM, 24 hrs, FIG. 26
Protocol: To determine the ability of urolithin A to induce autophagy in mouse muscle cells, undifferentiated C2C12 mouse myoblasts were seeded in T25 flasks and incubated overnight. Cells were incubated in 5% CO2 at 37° C. These cells were treated with one of the urolithins-urolithin A (UA), urolithin B (UB), urolithin C (UC) or urolithin D (UD)—dissolved in a 0.1% solution of DMSO for 24 hours. In one experiment UA, UB, UC and UD were dosed at a concentration of 100 μM for C2C12 myoblast treatment. In a separate study, C2C12 myoblasts were incubated at increasing concentrations of UA (10 μM, 50 μM and 100 μM). For each experiment a control culture was treated with 0.1% DMSO for the same period and served as the untreated control. In the final 30 minutes of incubation, lysosome degradation inhibitor was added to the culture. The cells were then washed with phosphate buffer solution and then treated with a 1% solution of trypsin enzyme to remove the adhesive cells from the cell culture dishes. The cells were then treated with EMD Millipore selective permeabilization reagent to permeabilize the cells so as to make the internal cellular proteins accessible to antibody treatment. Cells were then incubated with antibody to LC3B according to kit protocol (EMD Millipore FlowCellect™ Autophagy LC3 Antibody-based Assay Kit (Cat no. FCCH100171)). The cells were then washed and resuspended in the kit assay buffer. The resulting cells were then run through a flow cytometer and LC3B-FITC fluorescence was quantified to measure the level of LC3B in C2C12 cells for the various treatments. When cells undergo autophagy their intracellular levels of LC3-II increase which is detected by this method. This autophagy can be detected by fluorescent antibody labeling of LC3B, which can be measured quantitatively using flow cytometry. An increase in cellular autophagy is reflected by an increasing signal in the histogram of LC3B FITC.

Question: With `CO[C@H]1C[C@@H]2CC[C@@H](C)[C@@](O)(O2)C(=O)C(=O)N2CCCC[C@H]2C(=O)O[C@H]([C@H](C)C[C@@H]2CC[C@@H](O)[C@H](OC)C2)CC(=O)[C@H](C)/C=C(\C)[C@@H](O)[C@@H](OC)C(=O)[C@H](C)C[C@H](C)/C=C/C=C/C=C/1C` [Rapamycin, (3S,6R,7E,9R,10R,12R,14S,15E,17E,19E,21S,23S,26R,27R,34aS)-9,10,12,13,14,21,22,23,24,25,26,27,32,33,34,34a-hexadecahydro-9,27-dihydroxy-3-[(1R)-2-[(1S,3R,4R)-4-hydroxy-3-methoxycyclohexyl]-1-methylethyl]-10,21-dimethoxy-6,8,12,14,20,26-hexamethyl-23,27-epoxy-3H-pyrido[2,1-c][1, 4]-oxaazacyclohentriacontine-1,5,11,28,29(4H,6H,31H)-pentone] as the molecule, how does the “Mean Life Extension (%)” value ([1]; dose 100 μM) read?
Answer: 19%

Question: With `O=c1oc2c(O)c(O)cc3c(=O)oc4c(O)c(O)cc1c4c23` [Ellagic acid, ellagic acid] as the molecule, how does the “effect on lifespan in C. elegans” value [2] read?
Answer: no effects

Question: And the “age related mobility decline” value [3]?
Answer: no effect

Question: With `O=c1oc2cc(O)ccc2c2ccccc12` [Urolithin B, urolithin B] as the molecule, how does the “effect on lifespan in C. elegans” value [2] read?
Answer: extended the lifespan

Question: And the “pharyngeal pumping (muscle function)” value [4]?
Answer: decreases the age related decline in muscle activity

Question: And the “age related mobility decline” value [3]?
Answer: marked ability to reduce muscle function decline

Question: What about the “motility (time-lapse traces)” value [5] of the same molecule?
Answer: strongest effect

Question: What about the “LC3B signal (shift of the histogram)” value ([6]; listed as UB) of the same molecule?
Answer: increasing signal of LC3B; also recorded: increase in autophagy

Question: What does the source list for `O=c1oc2cc(O)ccc2c2cc(O)c(O)cc12` [Urolithin C, urolithin C]?
Answer: effect on lifespan in C. elegans [2]: extended the lifespan; LC3B signal (shift of the histogram) ([6]; listed as UC): increasing signal of LC3B; also recorded: increase in autophagy

Question: With `O=c1oc2c(O)c(O)ccc2c2cc(O)c(O)cc12` [Urolithin D, urolithin D] as the molecule, how does the “effect on lifespan in C. elegans” value [2] read?
Answer: extended the lifespan

Question: What about the “LC3B signal (shift of the histogram)” value ([6]; listed as UD) of the same molecule?
Answer: increasing signal of LC3B; also recorded: increase in autophagy

Question: For `CN(C)C(=N)NC(=N)N` [Metformin, N,N-Dimethylimidodicarbonimidic diamide], which “Mean Life Extension (%)” value ([1]; dose 50 μM) is on record?
Answer: 27%

Question: For `Oc1ccc(/C=C/c2cc(O)cc(O)c2)cc1` [Resveratrol, 3,5,4′-trihydroxy-trans-stilbene], which “Mean Life Extension (%)” value ([1]; dose 100 μM) is on record?
Answer: 6.2-12.6%

Question: What about the “Mean Life Extension (%)” value ([1]; dose 100 μM, listed as resveratrol) of the same molecule?
Answer: 12.6%

Question: For `NCCCCNCCCN` [Spermidine, spermidine], which “Mean Life Extension (%)” value ([1]; dose 200 μM) is on record?
Answer: 15%
